Assay results as given in patent publication US8557272B2, “Device for local and/or regional delivery employing liquid formulations of therapeutic agents” (Cordis Corporation, priority 2004, dated 2013).
One block for each molecule: values may come before it.

What was measured:
[1] = Drug concentration in liquid formulations (liquid chromatography, HPLC assay); assay type: physicochemical
[2] = tested on: human coronary artery smooth muscle cells; experiment: Anti-proliferative activity in non-synchronized cultured human coronary artery smooth muscle cells stimulated with two percent fetal bovine serum; assay type: cell-based; conditions: agent added to cells treated with rapamycin
Excerpt: The multiple curves represent various concentrations of mycophenolic acid ranging from zero to one thousand nanomolar concentrations.
FIG. 58 illustrates, in graphical format, the anti-proliferative activity of cladribine in non-synchronized cultured human coronary artery smooth muscle cells stimulated with two percent fetal bovine serum.
The multiple curves represent various concentrations of cladribine ranging from zero to nine hundred nanomolar concentrations.

[3] = tested on: human coronary artery smooth muscle cells; experiment: Antiproliferative effects of PX867 on cultured human coronary artery smooth muscle cells; assay type: cell-based
Excerpt: A PI3 kinase inhibitor can affect restinosis when administered by local or systemic delivery alone or in combination with sirolimus. FIGS. 87 and 88 illustrate the antiproliferative effects of PX867 on cultured human coronary artery smooth muscle cells alone (FIG. 87) or in combination with sirolimus (FIG. 88). […] Curve 8702 illustrates the percent inhibition for various concentrations. In FIG. 88, the six curves 8802, 8804, 8806, 8808, 8810 and 8812 represent various concentrations of PX867 with various concentrations of sirolimus. […] More specifically, curve 8812 illustrates the percent inhibition for a 240 nM PX-867 concentration. […] This may be compared to curve 8804 which represents a 15 nM PX-867 concentration. As one can see, the percent inhibition increases as the concentration of sirolimus increases. Accordingly, a potent PI3 kinase inhibitor, such as PX-867, can improve the inhibition of coronary artery smooth muscle cell proliferation either as a stand alone treatment or via combination with another restenotic agent, such as sirolimus.

[4] = tested on: human coronary artery smooth muscle cell; experiment: MTS assay of Panzem®; assay type: cell-based; conditions: concentrations up to 30,000.00 nanomolar
Excerpt: Typically, a control is utilized to determine baseline toxicity.

[5] = tested on: human coronary artery smooth muscle cells; experiment: Anti-proliferative activity in synchronized cultured human coronary artery smooth muscle cells stimulated with two percent fetal bovine serum; assay type: cell-based; conditions: for effect of the added agent on the anti-proliferative rapamycin dose response curve: agent added to cells treated with rapamycin
Excerpt: (§1) The multiple curves represent various concentrations of topotecan ranging from zero to three hundred nanomolar concentrations.
(§2) The multiple curves represent various concentrations of etoposide ranging from zero to eight hundred nanomolar concentrations.
The multiple curves represent various concentrations of Panzem® ranging from zero to 100 micromolar concentrations.

[6] = Porcine drug elution PK study of the dual drug eluting coating; assay type: in vivo; conditions: after eight (8) days of implantation; single-layer configuration of FIG. 83
Excerpt: Another critical parameter for the performance of the thrombus resistance of a device coated with cilostazol is the duration of the drug release from the coating. This is of particular significance in the two weeks after device implantation. In the porcine drug elution PK studies of the dual drug eluting coating, both cilostazol and sirolius were slowly released from the coating, resulting in a sustained drug release profile. The purpose of the porcine PK study is to assess the local pharmacokinetics of a drug eluting stent at a given implantation time. Normally three stents are implanted in three different coronary arteries in a pig for a given time point and then retrieved for total drug recovery analysis. The stents are retrieved at predetermined time points; namely, 1, 3 and 8 days. The stents are extracted and the total amount of drug remaining on the stents is determined by analysis utilizing HPLC (high performance liquid chromatography) for total drug amount. The difference between the original amount of drug on the stent and the amount of drug retrieved at a given time represents the amount of drug released in that period. The continuous release of drug into surrounding arterial tissue is what prevents the neointimal growth and restenosis in the coronary artery. A normal plot represents the percentage of total drug released (%, y-axis) vs. time of implantation (day, x-axis). […]

[7] = In vitro release of sirolimus and cilostazol from stent coating; assay type: physicochemical; conditions: single-layer configuration of FIG. 83
[8] = Cell viability assay (cytotoxicity); assay type: cell-based
Excerpt: as §1, §2

[9] = Procedure: The concentrations are determined by liquid chromatography and are presented as weight by volume figures.
In making the first formulation, 100 mg of paclitaxel is added to 400 μl of ethanol in a pre-weighed 20 ml scintillation vial. The mixture of paclitaxel and ethanol is vortexed and heated in a 60 degree C. bath for ten minutes. Once the drug is completely solubilized, 20 ml of PEG 400 is then added to make the final paclitaxel concentration 5 mg/ml. […] In a separate experiment, a series of 20 ml scintillation vials containing Vitamin E TPGS are heated or warmed up in a 50 degree C. water bath for ten minutes. Concurrently, distilled water is also warmed in a 50 degree C. water bath. Once the Vitamin E TPGS was melted in each vial, the distilled water is added into the Vitamin E TPGS vials and vortexed for one minute and left to stand in the water bath for two hours. The final concentrations of Vitamin E TPGS in water were one, five and fifteen percent. The paclitaxel stock solution (5 mg/ml) described herein was then mixed with the Vitamin E TPGS solutions to make the final paclitaxel formulations.

tumor cell lines = conditions: Woo et al. 2002; cited from earlier work
[10] = tested on: human coronary artery smooth muscle cell; experiment: Inhibition of human coronary artery smooth muscle cell proliferation by trichostatin A, cell culture; assay type: cell-based; conditions: in vitro cell culture; read-out: anti-proliferative IC50
Excerpt: FIG. 51 is a graph of the inhibition of coronary artery smooth muscle cells by trichostatin A in a cell culture study.

- concentration in the final solution (HPLC assay) ([1]; ethanol, Vitamin E TPGS and water, ethanol less than two percent): 15000 µg/mL
Compound: CO[C@H]1C[C@@H]2CC[C@@H](C)[C@@](O)(O2)C(=O)C(=O)N2CCCC[C@H]2C(=O)O[C@H]([C@H](C)C[C@@H]2CC[C@@H](OC(=O)C(C)(CO)CO)[C@H](OC)C2)CC(=O)[C@H](C)/C=C(\C)[C@@H](O)[C@@H](OC)C(=O)[C@H](C)C[C@H](C)/C=C/C=C/C=C/1C [CCI-779]

Compound: Nc1nc(Cl)nc2c1ncn2[C@H]1C[C@H](O)[C@@H](CO)O1 [Cladribine, 2-chlorodeoxyadenosine]
- effect of the added agent on the anti-proliferative rapamycin dose response curve [2]: potentiate the anti-proliferative activity of rapamycin

Compound: COC[C@H]1OC(=O)/C(=C\N2CCCC2)C2=C(O)C(=O)C3=C([C@H](OC(C)=O)C[C@]4(C)C(=O)CC[C@@H]34)[C@]21C [PX-867]
- inhibition of coronary artery smooth muscle cell proliferation ([3]; PX867 alone, concentration of about 10^−6): close to one hundred percent inhibition
- combination effect with sirolimus on percent inhibition ([3]; PX-867 15-240 nM with various concentrations of sirolimus): strong synergistic effect between PX-867 and sirolimus

Compound: COc1cc2c(cc1O)CC[C@@H]1[C@@H]2CC[C@]2(C)[C@@H](O)CC[C@@H]12 [Panzem®, 2-methoxyestradiol]
- human coronary artery smooth muscle cell survival (MTS assay) [4]: do not reduce human coronary artery smooth muscle cell survival
- effect of the added agent on the anti-proliferative rapamycin dose response curve [5]: increases the percent of inhibition of rapamycin alone
- inhibition of human coronary artery smooth muscle cell proliferation in vitro ([5]; agent alone): extremely effective inhibitor

Compound: O=C1CCc2cc(OCCCCc3nnnn3C3CCCCC3)ccc2N1 [cilostazol, 6[4-(1-cyclohexyl-1H-tetrazol-5-yl)-butoxy]-3,4-dihydro-2-(1H)-quinolinone]
- drug remaining in the drug coating [6]: ~80%
- in vitro release from the coating [7]: ~35%

Compound: COc1cc([C@@H]2c3cc4c(cc3[C@@H](O[C@@H]3O[C@@H]5CO[C@@H](C)O[C@H]5[C@H](O)[C@H]3O)[C@H]3COC(=O)[C@H]23)OCO4)cc(OC)c1O [etoposide]
- effect of the added agent on the anti-proliferative rapamycin dose response curve [2]: potentiate the anti-proliferative activity of rapamycin
- cytotoxicity in cell viability assay ([8]; at concentrations up to ten micromolar): non-cytotoxic

Compound: COc1c(C)c2c(c(O)c1C/C=C(\C)CCC(=O)O)C(=O)OC2 [mycophenolic acid]
- effect of the added agent on the anti-proliferative rapamycin dose response curve [2]: potentiates the anti-proliferative activity of rapamycin

- concentration of paclitaxel in a true liquid formulation [9]: up to 2.5 mg/ml
- concentration relative to the solubility of paclitaxel in water [9]: about 1000 fold
Compound: CC(=O)O[C@H]1C(=O)[C@@]2(C)[C@H]([C@H](OC(=O)c3ccccc3)[C@]3(O)C[C@H](OC(=O)[C@H](O)[C@@H](NC(=O)c4ccccc4)c4ccccc4)C(C)=C1C3(C)C)[C@]1(OC(C)=O)CO[C@@H]1C[C@@H]2O [paclitaxel]

- drug remaining in the drug coating [6]: ~80%
Compound: CO[C@H]1C[C@@H]2CC[C@@H](C)[C@@](O)(O2)C(=O)C(=O)N2CCCC[C@H]2C(=O)O[C@H]([C@H](C)C[C@@H]2CC[C@@H](O)[C@H](OC)C2)CC(=O)[C@H](C)/C=C(\C)[C@@H](O)[C@@H](OC)C(=O)[C@H](C)C[C@H](C)/C=C/C=C/C=C/1C [rapamycin]
- concentration relative to the solubility of sirolimus in water ([1]; 4 mg/ml liquid formulation with PEG 200): about four hundred to about one thousand times higher

Compound: CC[C@@]1(O)C(=O)OCc2c1cc1n(c2=O)Cc2cc3c(CN(C)C)c(O)ccc3nc2-1 [topotecan]
- cytotoxicity in cell viability assay ([8]; at concentrations up to one micromolar): non-cytotoxic
- effect of the added agent on the anti-proliferative rapamycin dose response curve [5]: potentiate the anti-proliferative activity of rapamycin

Compound: CC(/C=C/C(=O)NO)=C\[C@@H](C)C(=O)c1ccc(N(C)C)cc1 [trichostatin A]
- anti-proliferative IC50's (tumor cell lines): low nM range
- IC50 [10]: ~6 nM
